System: HCV replicon cells
Assay: Cell-based HCV replicon assay (replicon RNA level by real time PCR, Taqman)
Settings: HCV replicon cells, harvested day 3, replicon RNA by real time PCR; reported as range class; read-out: EC90 (μM) range
In short: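 HCV replicon cells treated 3 days with 10 serial 2-fold compound dilutions (top 25 μM to 1 μM; 0.5% DMSO, 10% FBS). Replicon RNA quantified by multiplex Taqman RT-PCR (NS5B amplicon, GAPDH control); EC50 and EC90 = concentrations giving ΔCT of 1 and 3.2 over baseline.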

Row | Compound | EC90 [µM]
1 | COc1cc2cc(-c3c(Cl)nc(N(C)C)nc3N[C@@H]3C[C@H](CO)[C@@H](O)[C@H]3O)oc2c(C)n1 [Example 12] | 0.5 to 5

Same assay, conditions: Hepatitis C virus, 72 h, HCV replicon cells, harvested day 3, replicon RNA by real time PCR; given as number; read-out: EC90 (μM) range

Row | Compound | EC90 [µM]
2 | CCN(CC)C(=O)OC[C@H]1C[C@@H](Nc2nc(NCC(F)(F)F)nc(C)c2-c2nc3ccccc3s2)[C@H](O)[C@@H]1O [Example 65] | 1
3 | CCC(CC)Oc1cc2cc(-c3c(C)nc(NCC4CC4)nc3N[C@@H]3C[C@H](CO)[C@@H](O)[C@H]3O)oc2c(C)n1 [Example 44] | > 25
4 | CCOc1cc2cc(-c3c(C)nc(NCC(F)(F)F)nc3N[C@@H]3C[C@H](CO)[C@@H](O)[C@H]3O)oc2c(C)n1 [Example 29] | 0.1
5 | CCOc1cc2cc(-c3c(C)nc(NCc4c(F)cccc4F)nc3N[C@@H]3C[C@H](CO)[C@@H](O)[C@H]3O)oc2c(C)n1 [Example 50] | 0.05

Same assay, conditions: Hepatitis C virus, 72 h, HCV replicon cells, harvested day 3, replicon RNA by real time PCR; reported as range class; read-out: EC90 (μM) range

Row | Compound | EC90 [µM]
6 | Cc1cc2cc(-c3c(Cl)nc(N)nc3N[C@@H]3C[C@H](CO)[C@@H](O)[C@H]3O)oc2c(C)n1 [Example 401] | < 0.5
7 | CCCOc1ccc2nc(-c3c(Cl)nc(N)nc3N[C@@H]3C[C@H](CO)[C@@H](O)[C@H]3O)sc2c1 [Example 197] | < 0.5
8 | CC1(C)O[C@@H]2[C@@H](CO)C[C@@H](Nc3nc(N)nc(Cl)c3-c3nc4c(F)cc(F)cc4s3)[C@@H]2O1 [Example 186] | 0.5 to 5
9 | CCc1nccc2cc(-c3c(Cl)nc(N)nc3N[C@@H]3C[C@H](CO)[C@@H](O)[C@H]3O)oc12 [Example 308] | < 0.5
10 | Nc1nc(Cl)c(-c2nc3ccc(OCc4ccccc4)cc3s2)c(N[C@@H]2C[C@H](CO)[C@@H](O)[C@H]2O)n1 [Example 199] | > 5
11 | OC[C@H]1C[C@@H](Nc2nc(NCCCC(F)(F)F)nc(Cl)c2-c2nc3ccccc3s2)[C@H](O)[C@@H]1O [Example 224] | < 0.5
12 | CC1(C)O[C@@H]2[C@@H](CO)C[C@@H](Nc3nc(N)nc(Cl)c3-c3nc4ccccc4s3)[C@@H]2O1 [Example 184] | < 0.5
13 | COc1cc2cc(-c3c(Cl)nc(N)nc3N[C@@H]3C[C@H](CO)[C@@H](O)[C@H]3O)oc2c(C)n1 [Example 14] | < 0.5
14 | CNC(=O)c1ccc2cc(-c3c(Cl)nc(N)nc3N[C@@H]3C[C@H](CO)[C@@H](O)[C@H]3O)oc2c1 [Example 177] | > 5
15 | Nc1nc(Cl)c(-c2nc3c(Cl)cccc3s2)c(N[C@@H]2C[C@H](CO)[C@@H](O)[C@H]2O)n1 [Example 183] | 0.5 to 5
16 | OC[C@H]1C[C@@H](Nc2nc(N3CCC3)nc(Cl)c2-c2nc3ccccc3s2)[C@H](O)[C@@H]1O [Example 413] | 0.5 to 5
17 | OC[C@H]1C[C@@H](Nc2nc(NCCC(F)(F)F)nc(Cl)c2-c2nc3ccccc3s2)[C@H](O)[C@@H]1O [Example 217] | < 0.5

Same assay, conditions: Hepatitis C virus, 72 h, HCV replicon cells, harvested on day 3, replicon RNA by real time PCR; calculated EC90 reported as range class; read-out: EC90 (μM) range

Row | Compound | EC90 [µM]
18 | Cc1nc(NCc2ccc(C(F)(F)F)cc2)nc(N[C@@H]2C[C@H](CO)[C@@H](O)[C@H]2O)c1-c1nc2ccccc2s1 [Example 242] | < 0.5
19 | Cc1nc(NCc2ccc(C(F)(F)F)cc2)nc(N[C@@H]2C[C@H](CO)[C@H]3OC(C)(C)O[C@H]32)c1-c1nc2ccccc2s1 [Example 241] | 0.5 to 5
20 | CCCCCNc1nc(Cl)c(-c2cc3cc(CC)ncc3o2)c(N[C@@H]2C[C@H](CO)[C@@H](O)[C@H]2O)n1 [Example 511] | < 0.5
21 | Cc1cc(CNc2nc(C)c(-c3nc4ccccc4s3)c(N[C@@H]3C[C@H](CO)[C@@H](O)[C@H]3O)n2)no1 [Example 492] | < 0.5
22 | Cc1ccccc1CNc1nc(C)c(-c2nc3ccccc3s2)c(N[C@@H]2C[C@H](CO)[C@H]3OC(C)(C)O[C@H]32)n1 [Example 487] | > 5
23 | Cc1nc(NCc2cccc(C(F)(F)F)c2)nc(N[C@@H]2C[C@H](CO)[C@H]3OC(C)(C)O[C@H]32)c1-c1nc2ccccc2s1 [Example 237] | 0.5 to 5
24 | OC[C@H]1C[C@@H](Nc2nc(NCc3ccccc3)nc(Cl)c2-c2nc3ccccc3s2)[C@H](O)[C@@H]1O [Example 430] | < 0.5
25 | Cc1nc(NCc2cccs2)nc(N[C@@H]2CC[C@@H](O)[C@H]2O)c1-c1nc2ccccc2s1 [Example 336] | < 0.5
26 | CCc1cc2cc(-c3c(Cl)nc(NCCOC)nc3N[C@@H]3C[C@H](CO)[C@@H](O)[C@H]3O)oc2cn1 [Example 501] | < 0.5
27 | COc1cc(CNc2nc(C)c(-c3cc4cc(OC)nc(C)c4o3)c(N[C@@H]3C[C@H](CO)[C@@H](O)[C@H]3O)n2)cc(OC)c1 [Example 348] | < 0.5
28 | COC(C)(C)CNc1nc(C)c(-c2nc3ccccc3s2)c(N[C@@H]2C[C@H](CO)[C@@H](O)[C@H]2O)n1 [Example 473] | < 0.5
29 | OC[C@H]1C[C@@H](Nc2nc(NC3CCOCC3)nc(Cl)c2-c2nc3ccccc3s2)[C@H](O)[C@@H]1O [Example 424] | < 0.5
30 | Cc1nc(NCc2ccccc2C(F)(F)F)nc(N[C@@H]2C[C@H](CO)[C@H]3OC(C)(C)O[C@H]32)c1-c1nc2ccccc2s1 [Example 236] | > 5

Same assay, conditions: Hepatitis C virus, 72 h, HCV replicon cells, replicon RNA level by real time PCR (Taqman), day 3; calculated EC90; read-out: EC90 (μM) range

Row | Compound | EC90 [µM]
31 | Cc1nc(NCC(O)c2ccccc2)nc(N[C@@H]2C[C@H](CO)[C@@H](O)[C@H]2O)c1-c1nc2ccccc2s1 (stereo partly shown) [Example 1919] | 0.5 to 5

Same assay, conditions: Hepatitis C virus, 72 h, HCV replicon cells, replicon RNA level by real time PCR (Taqman), harvested on day 3; calculated EC90 reported as range class; read-out: EC90 (μM) range

Row | Compound | EC90 [µM]
32 | Cc1nc(NCc2cc(F)cc(F)c2)nc(N[C@@H]2C[C@H](CO)[C@@H](O)[C@H]2O)c1-c1nc2cnccc2s1 [Example 1309] | < 0.5
33 | Cc1nc(NCC(F)(F)F)nc(N[C@@H]2C[C@H](CO)[C@@H](O)[C@H]2O)c1-c1nc2cnccc2s1 [Example 532] | < 0.5
34 | COCCNc1nc(N)c(-c2nc3ccccc3s2)c(N[C@@H]2C[C@H](CO)[C@@H](O)[C@H]2O)n1 [Example 1302] | 0.5 to 5
35 | CCOCCNc1nc(C)c(-c2nc3ccccc3s2)c(N[C@@H]2C[C@H](C(F)F)[C@@H](O)[C@H]2O)n1 [Example 1019] | < 0.5
36 | Cc1nc(NCc2ccco2)nc(N[C@@H]2C[C@H](CO)[C@H]3OC(C)(C)O[C@H]32)c1-c1nc2ccccc2s1 [Example 1109] | 0.5 to 5
37 | COc1cccc(Nc2nc(C)c(-c3nc4ccccc4s3)c(N[C@@H]3C[C@H](CO)[C@@H](O)[C@H]3O)n2)c1OC [Example 1129] | > 5
38 | Cc1nc(NCc2cccs2)nc(N[C@@H]2CC[C@@H](O)[C@H]2O)c1-c1nc2cnccc2s1 [Example 1214] | < 0.5
39 | Cc1nc(NCC(C)(C)CO)nc(N[C@@H]2C[C@H](CO)[C@@H](O)[C@H]2O)c1-c1nc2cnccc2s1 [Example 1317] | < 0.5
40 | Cc1nc(NC(C)c2ccco2)nc(N[C@@H]2C[C@H](CO)[C@H]3OC(C)(C)O[C@H]32)c1-c1nc2ccccc2s1 (stereo partly shown) [Example 1101] | > 5
41 | Cc1nc(NCc2ccc3c(c2)OCO3)nc(N[C@@H]2C[C@H](CO)[C@@H](O)[C@H]2O)c1-c1nc2ccccc2s1 [Example 1203] | 0.5 to 5
42 | Cc1nc(Nc2ccc(F)cc2)nc(N[C@@H]2C[C@H](CO)[C@@H](O)[C@H]2O)c1-c1nc2ccccc2s1 [Example 1044] | 0.5 to 5
43 | CCc1cc2cc(-c3c(C)nc(O)nc3N[C@@H]3C[C@H](CO)[C@@H](O)[C@H]3O)oc2cn1 [Example 1303] | 0.5 to 5

Same assay, conditions: Hepatitis C virus, 72 h, HCV replicon cells, replicon RNA level by real time PCR, harvested day 3; read-out: EC90 (μM) range

Row | Compound | EC90 [µM]
44 | Cc1nc(NCc2cc3cnn(C(=O)OC(C)(C)C)c3cc2F)nc(N[C@@H]2C[C@H](CO)[C@H]3OC(C)(C)O[C@H]32)c1-c1nc2ccccc2s1 [Example 1908] | 0.5 to 5
45 | Cc1nc(NCC(F)(F)F)nc(N[C@@H]2C[C@H](CNC(=O)CO)[C@@H](O)[C@H]2O)c1-c1nc2ccccc2s1 [Example 1508] | 0.5 to 5
46 | COc1ccc(CCNc2nc(C)c(-c3nc4cnccc4s3)c(N[C@@H]3CC[C@@H](O)[C@@]3(C)O)n2)cc1Cl [Example 1818] | 0.5 to 5
47 | Cc1ccc([C@H](C)Nc2nc(C)c(-c3nc4cnccc4s3)c(N[C@@H]3CC[C@@H](O)[C@@]3(C)O)n2)cc1 [Example 1810] | < 0.5
48 | CCCc1nccc2sc(-c3c(C)nc(N[C@H](C)C4CC4)nc3N[C@@H]3C[C@H](Cn4ccnn4)[C@@H](O)[C@H]3O)nc12 [Example 1386] | < 0.5
49 | Cc1nc(CN)nc(N[C@@H]2C[C@H](CO)[C@@H](O)[C@H]2O)c1-c1nc2ccccc2s1 [Example 1916] | > 5
50 | Cc1nc(NS(C)(=O)=O)nc(N[C@@H]2C[C@H](CO)[C@@H](O)[C@H]2O)c1-c1nc2ccccc2s1 [Example 1917] | > 5
51 | Cc1nc(NCC(F)(F)F)nc(N[C@@H]2CC[C@@H](O)[C@@]2(C)O)c1-c1nc2cnccc2s1 [Example 1809] | 0.5 to 5
52 | Cc1nc(NCC(F)(F)F)nc(N[C@@H]2C[C@H](CC#N)[C@@H](O)[C@H]2O)c1-c1nc2ccccc2s1 [Example 1635] | < 0.5
53 | Cc1cc(NCC2CC2)nc(N[C@@H]2C[C@H](CO)[C@@H](O)[C@H]2O)c1-c1nc2ccccc2s1 [Example 1616] | > 5
54 | Cc1nc(NCc2c(F)cccc2F)nc(N[C@@H]2CC[C@@H](O)[C@@]2(C)O)c1-c1nc2cnccc2s1 [Example 1808] | < 0.5
55 | Cc1nc(NCC(O)c2ccccc2)nc(N[C@@H]2C[C@H](CO)[C@@H](O)[C@H]2O)c1-c1nc2cnccc2s1 (stereo partly shown) [Example 1918] | < 0.5
56 | Cc1nc(NCC(F)(F)F)nc(N[C@@H]2C[C@H](CN(C)S(C)(=O)=O)[C@@H](O)[C@H]2O)c1-c1nc2ccccc2s1 [Example 1379] | < 0.5
57 | Cc1nc(N[C@@H](c2ccc(OC(F)(F)F)cc2)C(F)(F)F)nc(N[C@@H]2C[C@H](CO)[C@@H](O)[C@H]2O)c1-c1nc2c(C)nccc2s1 [Example 1546] | < 0.5
58 | CCN(C[C@@H]1C[C@@H](Nc2nc(NCC(F)(F)F)nc(C)c2-c2nc3ccccc3s2)[C@H](O)[C@@H]1O)S(C)(=O)=O [Example 1393] | 0.5 to 5

From patent US8697694B2, “Substituted pyridine and pyrimidine derivatives and their use in treating viral infections” (priority 2008, dated 2014)
